From patent US20260199297A1, “FERROPTOSIS INDUCERS TO TREAT CANCER” (The University of Toledo, priority 2022, published 2026) come the findings set out here.

The structures appear in SMILES notation. Read-outs that look alike come from different tables or passages of the source.

One assay relates to NCI-H522 cells. Put plainly: Cytotoxicity (methylene blue cell viability), NCI-H522. In kind it is cell-based, human. Particulars: for IC50: Homo sapiens. On the procedure: (§1) Having synthesized the CETZOLE analogs, their cytotoxic activity was evaluated. […] NCI-H522 RV-GFP is the corresponding control with RV-GFP tag, but without SLC7A11 overexpression. […] The cytotoxicity screening was conducted as described previously.
(§2) Cell lines were cultured in a humidified atmosphere containing 10% CO2 in Dulbecco's modified Eagle's medium (Mediatech, Inc) supplemented with 10% fetal bovine serum (Atlanta Biologicals). Cell types used MEFs, HT1080 (human fibrosarcoma cells), NARF2 (osteosarcoma), WI-38 (human embryonic lung fibroblast), MDA MB 231 (breast cancer), HCT-116 (human colon), and NCI-H522 (Non-Small Cell Lung Cancer) cell lines. To determine viability throughout these examples, 5,000 cells were plated per well of a 96-well plate and drugs were added 1 day later. Cells were stained 1 to 3 days later with a saturated solution of methylene blue in 50% ethanol. Plates were rinsed and retained dye was quantified by spectrophotometry. Absorbance was normalized to DMSO and given as 1 or 100% for cell viability. Results are representative of at least two independent experiments. Statistical significance was assessed using the Student's t test. All commercially available chemicals were obtained from Cayman Chemicals unless otherwise noted.

In assay [1] the test system is NCI-H522 GFP-SLC7A11 #8 cells. Briefly: Cytotoxicity (methylene blue cell viability), NCI-H522 clone overexpressing GFP-SLC7A11. In kind it is cell-based, human. The settings on record: Homo sapiens; Table 1; NCI-H522 clone overexpressing GFP-tagged SLC7A11; read-out: Half maximal inhibitory concentration (IC50), NCI-H522 GFP-SCL7A11 #8. On the procedure: as §1, §2

For a further assay, the system named is NCI-H522 RV-GFP cells. Briefly: Cytotoxicity (methylene blue cell viability), NCI-H522 RV-GFP control clone. In kind it is cell-based, human. The settings on record: Homo sapiens, NCI-H522; Table 1; control clone with RV-GFP tag; read-out: Half maximal inhibitory concentration (IC50), NCI-H522 Rv-GFP. On the procedure:
as §1, §2

In a further assay the test system is HT-1080 cells. Put plainly: Cytotoxicity (methylene blue cell viability), HT-1080. In kind it is cell-based, human. Particulars: Homo sapiens. The protocol: as §1, §2
A further assay concerns NARF2 cells. Put plainly: Cytotoxicity (methylene blue cell viability), NARF2. The settings on record: Homo sapiens; Table 1; NARF2 osteosarcoma cells; read-out: Half maximal inhibitory concentration (IC50), NARF2. In kind it is cell-based, human. The protocol: as §1, §2
The test system of a further assay is MDA-MB-231 cells. Put plainly: Cytotoxicity (methylene blue cell viability), MDA-MB-231. The format is cell-based. The settings on record: Homo sapiens. The protocol: as §1, §2
In assay [2] the test system is NCI-H522, NCI-H522 GFP-SLC7A11 #8, NCI-H522 RV-GFP, HT-1080, NARF2 and MDA-MB 231 cell lines. Put plainly: Cytotoxicity screening across the tested cell lines. In kind it is cell-based. Particulars: summary over all tested cell lines; read-out: IC50 values against the tested cell lines. The protocol:
as §1, §2

The subject of assay [3] is protein bands between 25 kD to 38 kD. Put plainly: Competitive binding assay against probe PPd (in-gel fluorescence). The settings on record: 20 μM concentration; bands 25 kD to 38 kD.
Another assay has as its system WI38 cells. Put plainly: Cytotoxicity on normal cell line WI38. The format is cell-based, human. Particulars: Homo sapiens, WI-38; Table 2; lung tissue fibroblast; read-out: Half maximal inhibitory concentration (IC50), Normal Cell Line WI38. The protocol: (§3) To determine cytotoxicity at a therapeutically more relevant concentration, cells were treated at a single concentration of […] (FIG. 12).
as §2

Assay [4] deals with MEFs (Mouse Embryonic Fibroblasts). Briefly: Cytotoxicity on normal cell line MEFs. In kind it is cell-based. Particulars: Fibroblast; Table 2; Mouse Embryonic Fibroblasts; read-out: Half maximal inhibitory concentration (IC50), Normal Cell Line Mefs. On the procedure: as §3, §2
Assay [5] concerns NCI-H522 and HT-1080 cancer cell lines, WI38 and MEFs normal cell lines. Briefly: Selective cytotoxicity assay at a single concentration. In kind it is cell-based. Also noted: dose or concentration left out as unconfirmed. Particulars: NCI-H522, HT-1080, WI38, MEFs. The protocol:
Overall, WI38 cells were the most tolerant to the treatment, whereas MEF cells were partially tolerant and relatively less sensitive than both NCI-H522 and HT-1080 cells. To determine cytotoxicity at a therapeutically more relevant concentration, cells were treated at a single concentration of […] (FIG. 12).
as §2, with “noted. Compound CETZOLE 1 and the analogs were synthesized as highlighted.” for “noted.”

Where [6] appears, read: Table 1, NCI-H522 cancer cell line, read-out: Half maximal inhibitory concentration (IC50), NCI-H522.
Where [7] appears, read: Table 1, HT-1080 fibrosarcoma cell line, read-out: Half maximal inhibitory concentration (IC50), HT-1080.
The mark [8] stands for this setting: Table 1, MDA-MB-231 breast cancer cell line, read-out: Half maximal inhibitory concentration (IC50), MDA-MB-231.
[9] abbreviates: NCI-H522, Table 2, read-out: Half maximal inhibitory concentration (IC50), Cancer Cell Line NCI-H522.
The mark [10] stands for this setting: HT-1080, Table 2, read-out: Half maximal inhibitory concentration (IC50), Cancer Cell Line HT1080.
Setting [11] is: NCI-H522, Table 3, probes and negative controls, read-out: IC50, NCI-H522.
Setting [12] is: HT-1080, Table 3, probes and negative controls, read-out: IC50, HT-1080.
Setting [13] is: MDA-MB-231, Table 3, probes and negative controls, read-out: IC50, MDA-MB-231.

In the case of `C#Cc1nc(C2=C(C)C(=O)/C(=N/OC(C)=O)C2)cs1` [compound 18], the IC50 with NCI-H522 cells (setting [6]) was 11 ± 1.53 µM; in [1], more than 20 µM; with NCI-H522 RV-GFP cells, more than 20 µM; in the assay with HT-1080 cells (setting [7]), more than 20 µM; in the assay with NARF2 cells, more than 20 µM; in the assay with MDA-MB-231 cells (setting [8]), 18.5 ± 1.7 µM. Besides, in assay [2], the IC50 is more than 20 µM.

On to `O=C(O)c1cc(/N=N/c2ccc(S(=O)(=O)Nc3ccccn3)cc2)ccc1O` [sulfasalazine], for which the “competition of PPd-labelled protein bands by known ferroptosis inducers” value in assay [3] is reported as “did not show any significant competition”.

As for `C#Cc1nc(C2=C(C)C(OC(=O)CC)/C(=N/OC(=O)CC)C2)cs1` (stereo not shown) [compound 20b, (E)-3-(2-Ethynylthiazol-4-yl)-2-methyl-5-((propionyloxy)imino)cyclopent-2-en-1-yl propionate], the IC50 was determined as 0.12 ± 0.06 µM in the assay with NCI-H522 cells (setting [9]); 0.12 ± 0.06 µM in the assay on NCI-H522 cells (setting [6]); 2.06 ± 0.54 µM in assay [1]; 0.59 ± 0.22 µM in the assay on NCI-H522 RV-GFP cells; 0.15 ± 0.02 µM with HT-1080 cells (setting [10]); 0.15 ± 0.02 µM in the assay with HT-1080 cells (setting [7]). In addition, the IC50 in the assay with NARF2 cells is 13.4 ± 3.3 µM; with MDA-MB-231 cells (setting [8]), 0.18 ± 0.03 µM; with WI38 cells, 2.52 ± 0.92 µM; in assay [4] it was 0.28 ± 0.04 µM. Moreover, the “cell death at a single concentration” value in assay [5] was “killed only the cancer cell lines NCI-H522 and HT-1080”.

As to `C#Cc1nc(C2=C(C)C(NC(=O)c3cc4ccc(N(CC)CC)cc4oc3=O)CC2)cs1` (stereo not shown) [PPa, 7-(Diethylamino)-N-(3-(2-ethynylthiazol-4-yl)-2-methylcyclopent-2-en-1-yl)-2-oxo-2H-chromene-3-carboxamide], the IC50 in the assay on NCI-H522 cells (setting [11]) was determined as 4.56 ± 1.43 µM; in the assay with NCI-H522 cells (cell line not given, value matches NCI-H522 of Table 3, read-out: IC50 (moderate cytotoxicity of PPa)), 4.56 ± 1.43 µM; in the assay on HT-1080 cells (setting [12]) it was 4.58 ± 0.87 µM; with MDA-MB-231 cells (setting [13]), 1.2 ± 1.03 µM.

On to `CC1=C(c2csc(Br)n2)CCC1O` (stereo not shown) [compound 13, 3-(2-Bromothiazol-4-yl)-2-methylcyclopent-2-en-1-ol], for which the IC50 with NCI-H522 cells (setting [11]), in the assay on HT-1080 cells (setting [12]) and in the assay on MDA-MB-231 cells (setting [13]) was more than 20 µM throughout.

As for `C#Cc1nc(C2=C(C)C(O)/C(=N/O)C2)cs1` (stereo not shown) [compound 19, (E)-4-(2-Ethynylthiazol-4-yl)-2-hydroxy-3-methylcyclopent-3-en-1-one oxime], the IC50 in the assay on NCI-H522 cells (setting [6]) is 4.68 ± 1.03 µM; in assay [1], more than 20 µM; in the assay with NCI-H522 RV-GFP cells, 5.55 ± 0.01 µM; with HT-1080 cells (setting [7]) it was 5.77 ± 0.67 µM; with NARF2 cells, more than 20 µM; with MDA-MB-231 cells (setting [8]), 6.57 ± 0.5 µM.

With `C#Cc1nc(C2=C(C)C(OC(=O)CCC)/C(=N/OC(=O)CCC)C2)cs1` (stereo not shown) [compound 20c, (E)-5-((Butyryloxy)imino)-3-(2-ethynylthiazol-4-yl)-2-methylcyclopent-2-en-1-yl butyrate], the IC50 with NCI-H522 cells (setting [9]) came out at 0.13 ± 0.09 µM; with NCI-H522 cells (setting [6]), 0.13 ± 0.09 µM; in [1], 1.93 ± 0.8 µM; with NCI-H522 RV-GFP cells it was 0.28 ± 0.13 µM; in the assay with HT-1080 cells (setting [10]), 0.19 ± 0.09 µM; with HT-1080 cells (setting [7]), 0.19 ± 0.09 µM. Also, the IC50 is 5.95 ± 1.8 µM in the assay on NARF2 cells, 0.83 ± 0.15 µM in the assay with MDA-MB-231 cells (setting [8]), 1.19 ± 0.3 µM with WI38 cells and 0.79 ± 0.04 µM in assay [4]. In addition, in assay [5], the “cell death at a single concentration” value was “killed only the cancer cell lines NCI-H522 and HT-1080”.

Regarding `C#CCO/N=C1\CC(c2csc(Br)n2)=C(C)C1O` (stereo not shown) [NPd, 4-(2-Bromothiazol-4-yl)-2-hydroxy-3-methylcyclopent-3-en-1-one O-prop-2-yn-1-yl oxime], the IC50 in the assay on NCI-H522 cells (setting [11]), with HT-1080 cells (setting [12]) and with MDA-MB-231 cells (setting [13]) was more than 20 µM in each case.

Turning to `CCN(CC)c1ccc2cc(C(=O)NC3CCC(c4csc(Br)n4)=C3C)c(=O)oc2c1` (stereo not shown) [NPa, N-(3-(2-Bromothiazol-4-yl)-2-methylcyclopent-2-en-1-yl)-7-(diethylamino)-2-oxo-2H-chromene-3-carboxamide], the IC50 with NCI-H522 cells (setting [11]), in the assay on HT-1080 cells (setting [12]) and in the assay on MDA-MB-231 cells (setting [13]) was more than 20 µM in each case.

On to `C#Cc1nc(C2=C(C)C(O)/C(=N\OCc3ccccc3)C2)cs1` (stereo not shown) [compound 21, (Z)-4-(2-Ethynylthiazol-4-yl)-2-hydroxy-3-methylcyclopent-3-en-1-one O-benzyl oxime], for which the IC50 was 1.18 ± 0.8 µM with NCI-H522 cells (setting [6]); 2.17 ± 1.5 µM in assay [1]; 3.02 ± 1.7 µM in the assay on NCI-H522 RV-GFP cells; 0.93 ± 0.12 µM with HT-1080 cells (setting [7]); more than 20 µM in the assay with NARF2 cells; 13.4 ± 5.3 µM in the assay on MDA-MB-231 cells (setting [8]).

Turning to `Cc1onc(C(=O)N2CCN(C(c3ccc(Cl)cc3)c3ccc(Cl)cc3)CC2)c1[N+](=O)[O-]` [ML210], the “competition of PPd-labelled protein bands by known ferroptosis inducers” value in assay [3] was “compete out the same protein bands”.

Regarding `C#Cc1nc(C2=C(C)C(NC(=O)CCCC[C@@H]3SC[C@@H]4NC(=O)N[C@@H]43)CC2)cs1` (stereo partly drawn) [PPb, N-(3-(2-Ethynylthiazol-4-yl)-2-methylcyclopent-2-en-1-yl)-5-((3aS,4S,6aR)-2-oxohexahydro-1H-thieno[3,4-d]imidazol-4-yl)pentanamide], the IC50 is 17.9 ± 3.98 µM in the assay with NCI-H522 cells (setting [11]); 17.9 ± 3.98 µM in the assay on NCI-H522 cells (NCI-H522, unit inferred, read-out: IC50 on NCI-H522 cell line); 7.91 ± 1.9 µM in the assay on HT-1080 cells (setting [12]); more than 20 µM in the assay on MDA-MB-231 cells (setting [13]). The “activity relative to CETZOLE 1” value with NCI-H522 cells (NCI-H522 cell line) is reported as “five-fold less active”.

As for `C#CCCC(=O)Nc1ccc(C(=O)c2ccc(NC(=O)CO/N=C3\CC(c4csc(Br)n4)=C(C)C3O)cc2)cc1` (stereo not shown) [NPe, (E)-N-(4-(4-(2-(((4-(2-Bromothiazol-4-yl)-2-hydroxy-3-methylcyclopent-3-en-1-ylidene)amino)oxy)acetamido)benzoyl)phenyl)pent-4-ynamide], the IC50 with NCI-H522 cells (setting [11]), in the assay on HT-1080 cells (setting [12]) and with MDA-MB-231 cells (setting [13]) was more than 20 µM in each case.

Consider `CC1=C(c2csc(Br)n2)CCC1NC(=O)CCCC[C@@H]1SC[C@@H]2NC(=O)N[C@@H]21` (stereo partly drawn) [NPb, N-(3-(2-Bromothiazol-4-yl)-2-methylcyclopent-2-en-1-yl)-5-((3aS,4S,6aR)-2-oxohexahydro-1H-thieno[3,4-d]imidazol-4-yl)pentanamide], for which the IC50 in the assay on NCI-H522 cells (setting [11]), in the assay with HT-1080 cells (setting [12]) and with MDA-MB-231 cells (setting [13]) was more than 20 µM in each case.
